Experimental data taken from patent publication US7211422B2, “Polypeptide having α-isomaltosylglucosaccharide synthase activity” (Kabushiki Kaisha Hayashibara Seibutsu Kagaku Kenkyujo, priority 2001, dated 2007).

Tests used:
[1] = test system: polypeptide having α-isomaltosylglucosaccharide-forming enzyme activity; test: Action on saccharides, summary in words for the polypeptide in general; type: biochemical; details: summary of Table 7
Procedure: (§1) It was tested whether saccharides can be used as substrates for the polypeptide of α-isomaltosylglucosaccharide-forming enzyme of the present invention. For the purpose, a solution of maltose, maltotriose, maltotetraose, maltopentaose, maltohexaose, maltoheptaose, isomaltose, isomaltotriose, panose, isopanose, trehalose, kojibiose, nigerose, neotrehalose, cellobiose, gentibiose, maltitol, maltotriitol, lactose, sucrose, erlose, selaginose, maltosyl glucoside, or isomaltosyl glucoside was prepared.
(§2) To each of the above solutions was added two units/g substrate of a purified polypeptide specimen of α-isomaltosylglucosaccharide-forming enzyme from either Bacillus globisporus C11 obtained by the method in Experiment 1-3, Bacillus globisporus N75 obtained by the method in Experiment 2-3, or Arthrobacter globiformis A19 obtained by the method in Experiment 3-3, and the resulting each solution was adjusted to give a substrate concentration of 2% (w/v) and incubated at 30° C. and pH 6.0, except for using pH 8.4 for the enzyme from Arthrobacter globiformis A19, for 24 hours. In order to analyze the saccharides in the reaction mixture before and after the enzymatic reaction, silica gel thin-layer chromatography (hereinafter, abbreviated as “TLC”) was carried out. After two-times development using, as a developer, a mixture solution of n-butanol, pyridine, and water (=6:4:1), and, as a thin-layer plate, “KIESELGEL 60”, an aluminum plate (20×20 cm) for TLC commercialized by Merck & Co., Inc., Rahway, USA, the saccharides in the reaction mixture were examined whether the enzyme acted or not by the coloration of sugars by the sulfuric acid-methanol method.

[2] = test system: α-isomaltosylglucosaccharide-forming enzyme from Bacillus globisporus N75; test: Action on saccharides (TLC before and after enzymatic reaction); type: biochemical; set-up: key: −: it showed no change; +: it showed a slight reduction of the color spot of the substrate and the formation of other reaction product; ++: it showed a high reduction of the color spot of the substrate and the formationof other reaction product; +++: it showed a substantial disappearance of the substrate spot and the formation of other reaction product; details: two units/g substrate, substrate 2% (w/v), 30° C., pH 6.0, 24 hours
Procedure: as §1, §2

[3] = test system: α-isomaltosylglucosaccharide-forming enzyme from Bacillus globisporus C11; test: as above; type: biochemical; set-up: key: −: it showed no change; +: it showed a slight reduction of the color spot of the substrate and the formation of other reaction product; ++: it showed a high reduction of the color spot of the substrate and the formationof other reaction product; +++: it showed a substantial disappearance of the substrate spot and the formation of other reaction product; details: two units/g substrate, substrate 2% (w/v), 30° C., pH 6.0, 24 hours
Procedure: as §1, §2

[4] = test system: α-isomaltosylglucosaccharide-forming enzyme from Arthrobacter globiformis A19; test: as above; type: biochemical; set-up: key: −: it showed no change; +: it showed a slight reduction of the color spot of the substrate and the formation of other reaction product; ++: it showed a high reduction of the color spot of the substrate and the formationof other reaction product; +++: it showed a substantial disappearance of the substrate spot and the formation of other reaction product; details: two units/g substrate, substrate 2% (w/v), 30° C., pH 8.4, 24 hours
Procedure: as §1, §2

[5] = test system: polypeptide having α-isomaltosylglucosaccharide-forming enzyme activity, obtained in Experiment 1-3; test: Reaction product from maltooligosaccharide (sugar composition by HPLC); type: biochemical, Bacillus globisporus C11; set-up: unit not given here; details: 1% (w/v) substrate, 35° C., pH 6.0, 8 hours
Procedure: To an aqueous solution containing one percent (w/v) of maltose, maltotriose, maltotetraose, or maltopentaose as a substrate was added the polypeptide having α-isomaltosylglucosaccgaride-forming enzyme activity, obtained in Experiment 1-3, in an amount of two units/g-solid for maltose and maltotriose, 0.2 unit/g-solid for maltotetraose, and 0.1 unit/g-solid for maltopentaose, followed by incubation at 35° C. and pH 6.0 for 8 hours. After stopping the enzymatic reaction by a 10-minutes incubation, sugar compositions in the reaction mixture were measured by HPLC using “YMC Pack ODS-AQ303”, a column commercialized by YMC Co., Ltd., Tokyo, Japan, at a column temperature of 40° C. and a flow rate of 0.5 ml/minutes of water, and using as a detector “RI-8012”, a differential refractometer commercialized by Tosoh Corporation, Tokyo, Japan.

Compound	Action of the polypeptide on the saccharide (in words) [1]	Enzyme action, N75 enzyme [2]	Enzyme action, C11 enzyme [3]	Enzyme action, A19 enzyme [4]	Sugar composition of reaction mixture, substrate Maltopentaose ([5]; 0.1 unit/g-solid)	Sugar composition of reaction mixture, substrate Maltotetraose ([5]; 0.2 unit/g-solid)	Sugar composition of reaction mixture, substrate Maltotriose ([5]; two units/g-solid)	Sugar composition of reaction mixture, substrate Mlatose ([5]; two units/g-solid)
OC[C@H]1O[C@H](O[C@H]2[C@H](O)[C@@H](CO)OC(O)[C@@H]2O)[C@H](O)[C@@H](O)[C@@H]1O (stereo partly shown) [Nigerose, nigerose]	slightly acted	+	+	+				
OC[C@@H](O)[C@@H](O[C@H]1O[C@H](CO)[C@@H](O[C@H]2O[C@H](CO)[C@@H](O)[C@H](O)[C@H]2O)[C@H](O)[C@H]1O)[C@H](O)[C@@H](O)CO [Maltotriitol, maltotriitol]	slightly acted	+	+	+				
OC[C@H]1O[C@H](O[C@H]2C(O)O[C@H](CO)[C@@H](O)[C@@H]2O)[C@H](O)[C@@H](O)[C@@H]1O (stereo partly shown) [Kojibiose, kojibiose]	slightly acted	+	+	+				
OC[C@H]1O[C@H](O[C@H]2[C@H](O)[C@@H](O)[C@H](O)O[C@@H]2CO)[C@H](O)[C@@H](O)[C@@H]1O [Maltose, maltose]	slightly acted	+	+	+	0.0	0.3	17.9	78.0
OC[C@H]1O[C@@](CO)(O[C@H]2O[C@H](CO)[C@@H](O[C@H]3O[C@H](CO)[C@@H](O)[C@H](O)[C@H]3O)[C@H](O)[C@H]2O)[C@@H](O)[C@@H]1O [Erlose, erlose]	slightly acted	+	+	+				
OC[C@H]1O[C@@H](O[C@H]2O[C@H](CO)[C@@H](O)[C@H](O)[C@H]2O)[C@H](O)[C@@H](O)[C@@H]1O [Neotrehalose, neotrehalose]	slightly acted	+	+	+				
